The source of these data is US10004701B2, “Methods and compositions for treating infection” (UNIVERSITY OF ROCHESTER, priority 2012, dated 2018).

Holding throughout (test): AK assay 384-well format, Prestwick library screening
One assay has as its system K. pneumoniae. The class given is cell-based, Klebsiella pneumoniae. The settings on record: 50 μM final drug concentration; for fold induction at 50 µM: Klebsiella pneumoniae, 3 h.
For another assay, the system named is E. coli. The class given is cell-based, Escherichia coli. As to conditions: 50 μM final drug concentration; for fold induction at 50 µM: Escherichia coli, 3 h.
Assay [1] deals with A. baumannii strain 98-37-09. In kind it is cell-based, Acinetobacter baumannii. The settings on record: 50 μM final drug concentration; for fold induction at 50 µM: Acinetobacter baumannii, 983709, 3 h.
In the next assay the test system is E. cloacae. In kind it is cell-based, Enterobacter cloacae. As to conditions: 50 μM final drug concentration; for fold induction at 50 µM: Enterobacter cloacae, 3 h.
For another assay, the system named is P. aeruginosa. In kind it is cell-based, Pseudomonas aeruginosa. The settings on record: 50 μM final drug concentration; for fold induction at 50 µM: Pseudomonas aeruginosa, 3 h.
The subject of another assay is E. faecium. The class given is cell-based, Enterococcus faecium. As to conditions: 50 μM final drug concentration; for fold induction at 50 µM: Enterococcus faecium, 3 h.
Assay [2] has as its system S. aureus strain USA300-0114. The class given is cell-based, Staphylococcus aureus. As to conditions: 50 μM final drug concentration; for fold induction at 50 µM: Staphylococcus aureus, USA300, 3 h.

The structures appear in SMILES notation. Structures can show the parent of a compound that is named as a salt. Where two headings read alike, the source gives them in different places.

For `COC(=O)[C@H]1[C@H]2C[C@@H]3c4[nH]c5cc(OC)ccc5c4CCN3C[C@H]2C[C@@H](OC(=O)/C=C/c2cc(OC)c(OC)c(OC)c2)[C@@H]1OC` [Rescinnamin], the “AK-based Prestwick Library Screening Results, K. pneumoniae (increase in extracellular AK activity)” value in the assay with K. pneumoniae (planktonic K. pneumoniae, cutoff for positive-scoring molecules 3-fold increase) came to 0.6. Moreover, the “AK-based Prestwick Library Screening Results, E. coli (increase in extracellular AK activity)” value with E. coli (planktonic E. coli, cutoff for positive-scoring molecules 3-fold increase) was determined as 0.7. The “AK-based Prestwick Library Screening Results, A. baumannii (increase in extracellular AK activity)” value in assay [1] (planktonic A. baumannii, cutoff for positive-scoring molecules 3-fold increase) was determined as 1.1. For the same compound, the “AK-based Prestwick Library Screening Results, E. cloacae (increase in extracellular AK activity)” value in the assay with E. cloacae (planktonic E. cloacae, cutoff for positive-scoring molecules 3-fold increase) is on record as 0.6. The “AK-based Prestwick Library Screening Results, P. aeruginosa (increase in extracellular AK activity)” value with P. aeruginosa (planktonic P. aeruginosa, cutoff for positive-scoring molecules 3-fold increase) is reported as 0.4. The “AK-based Prestwick Library Screening Results, E. faecium (increase in extracellular AK activity)” value in the assay on E. faecium (planktonic E. faecium, cutoff for positive-scoring molecules 3-fold increase) was 1.0. Also, the “AK-based Prestwick Library Screening Results, S. aureus (increase in extracellular AK activity)” value in assay [2] (planktonic S. aureus, cutoff for positive-scoring molecules 3-fold increase) stood at 0.3.
As to `COC(=O)[C@H]1[C@H]2C[C@@H]3c4[nH]c5cc(OC)ccc5c4CCN3C[C@H]2C[C@@H](OC(=O)c2cc(OC)c(OC)c(OC)c2)[C@@H]1OC` [Reserpine], the fold induction at 50 µM in the assay on K. pneumoniae (cutoff for positive-scoring molecules 3-fold increase, read-out: AK-based Prestwick Library Screening Results, K. pneumoniae (fold increase in extracellular AK activity)) is 1.2; in the assay with E. coli (cutoff for positive-scoring molecules 3-fold increase, read-out: AK-based Prestwick Library Screening Results, E. coli (fold increase in extracellular AK activity)), 1.3; in assay [1] (cutoff for positive-scoring molecules 3-fold increase, read-out: AK-based Prestwick Library Screening Results, A. baumannii (fold increase in extracellular AK activity)), 1.5; in the assay with E. cloacae (cutoff for positive-scoring molecules 3-fold increase, read-out: AK-based Prestwick Library Screening Results, E. cloacae (fold increase in extracellular AK activity)), 1.5; in the assay on P. aeruginosa (cutoff for positive-scoring molecules 3-fold increase, read-out: AK-based Prestwick Library Screening Results, P. aeruginosa (fold increase in extracellular AK activity)), 1.4; with E. faecium (cutoff for positive-scoring molecules 3-fold increase, read-out: AK-based Prestwick Library Screening Results, E. faecium (fold increase in extracellular AK activity)), 1.1. In assay [2] (cutoff for positive-scoring molecules 3-fold increase, read-out: AK-based Prestwick Library Screening Results, S. aureus (fold increase in extracellular AK activity)), the fold induction at 50 µM came to 1.3.
`COc1ccc2c3c([nH]c2c1)[C@H]1C[C@H]2[C@H](C[C@@H](O)[C@H](OC)[C@H]2C(=O)O)CN1CC3.Cl` [Reserpinic acid hydrochloride]: the “AK-based Prestwick library screening result, K. pneumoniae (fold increase in extracellular AK activity)” value in the assay on K. pneumoniae (planktonic K. pneumoniae, positive cutoff 3-fold increase) was 0.7. In the assay with E. coli (planktonic E. coli, […]), the “AK-based Prestwick library screening result, E. coli (fold increase in extracellular AK activity)” value is reported as 0.9. Also, in assay [1] (planktonic A. baumannii, positive cutoff 3-fold increase), the “AK-based Prestwick library screening result, A. baumannii (fold increase in extracellular AK activity)” value came to 0.8. Also, in the assay on E. cloacae (planktonic E. cloacae, positive cutoff 3-fold increase), the “AK-based Prestwick library screening result, E. cloacae (fold increase in extracellular AK activity)” value is 1.0. For the same compound, the “AK-based Prestwick library screening result, P. aeruginosa (fold increase in extracellular AK activity)” value with P. aeruginosa (planktonic P. aeruginosa, positive cutoff 3-fold increase) is 0.8. Besides, the “AK-based Prestwick library screening result, E. faecium (fold increase in extracellular AK activity)” value in the assay on E. faecium (planktonic E. faecium, positive cutoff 3-fold increase) was found to be 0.9. In assay [2] (planktonic S. aureus, positive cutoff 3-fold increase), the “AK-based Prestwick library screening result, S. aureus (fold increase in extracellular AK activity)” value worked out at 0.6.
As for `CC1=C(/C=C/C(C)=C/C=C/C(C)=C/C(=O)O)C(C)(C)CCC1` [Retinoic acid], the fold induction at 50 µM is 0.6 in the assay with K. pneumoniae (384-well format, cutoff for positive-scoring molecules 3-fold increase, read-out: AK-based Prestwick Library Screening Results, K. pneumoniae (increase in extracellular AK activity)); 0.7 in the assay with E. coli (384-well format, cutoff for positive-scoring molecules 3-fold increase, read-out: AK-based Prestwick Library Screening Results, E. coli (increase in extracellular AK activity)); 0.8 in assay [1] (384-well format, cutoff for positive-scoring molecules 3-fold increase, read-out: AK-based Prestwick Library Screening Results, A. baumannii (increase in extracellular AK activity)); 0.9 in the assay on E. cloacae (384-well format, cutoff for positive-scoring molecules 3-fold increase, read-out: AK-based Prestwick Library Screening Results, E. cloacae (increase in extracellular AK activity)); 0.7 with P. aeruginosa (384-well format, cutoff for positive-scoring molecules 3-fold increase, read-out: AK-based Prestwick Library Screening Results, P. aeruginosa (increase in extracellular AK activity)); 1 in the assay on E. faecium (384-well format, cutoff for positive-scoring molecules 3-fold increase, read-out: AK-based Prestwick Library Screening Results, E. faecium (increase in extracellular AK activity)). In addition, the fold induction at 50 µM in assay [2] (384-well format, cutoff for positive-scoring molecules 3-fold increase, read-out: AK-based Prestwick Library Screening Results, S. aureus (increase in extracellular AK activity)) came to 0.8.
For `NC(=O)c1ncn([C@@H]2O[C@H](CO)[C@@H](O)[C@H]2O)n1` [Ribavirin], the fold induction at 50 µM in the assay with K. pneumoniae (planktonic K. pneumoniae, positive cutoff 3-fold increase, read-out: AK-based Prestwick library screening result, K. pneumoniae (fold increase in extracellular AK activity)) came to 0.7; in the assay on E. coli (planktonic E. coli, positive cutoff 3-fold increase, read-out: AK-based Prestwick library screening result, E. coli (fold increase in extracellular AK activity)), 0.8; in assay [1] (planktonic A. baumannii, positive cutoff 3-fold increase, read-out: AK-based Prestwick library screening result, A. baumannii (fold increase in extracellular AK activity)), 0.9; with E. cloacae (planktonic E. cloacae, positive cutoff 3-fold increase, read-out: AK-based Prestwick library screening result, E. cloacae (fold increase in extracellular AK activity)), 1.2; in the assay on P. aeruginosa (planktonic P. aeruginosa, positive cutoff 3-fold increase, read-out: AK-based Prestwick library screening result, P. aeruginosa (fold increase in extracellular AK activity)), 1.1; with E. faecium (planktonic E. faecium, positive cutoff 3-fold increase, read-out: AK-based Prestwick library screening result, E. faecium (fold increase in extracellular AK activity)), 0.9. In addition, the fold induction at 50 µM in assay [2] (planktonic S. aureus, positive cutoff 3-fold increase, read-out: AK-based Prestwick library screening result, S. aureus (fold increase in extracellular AK activity)) was found to be 0.7.
In the case of `Cc1cc2nc3c(=O)[nH]c(=O)nc-3n(C[C@H](O)[C@H](O)[C@H](O)CO)c2cc1C` [Riboflavine], the fold induction at 50 µM in the assay with K. pneumoniae (planktonic, cutoff for positive 3-fold increase, read-out: AK-based Prestwick Library Screening Results, K. pneumoniae (fold increase in extracellular AK activity)) is 1.6; in the assay with E. coli (planktonic, cutoff for positive 3-fold increase, read-out: AK-based Prestwick Library Screening Results, E. coli (fold increase in extracellular AK activity)), 1.1; in assay [1] (planktonic, cutoff for positive 3-fold increase, read-out: AK-based Prestwick Library Screening Results, A. baumannii (fold increase in extracellular AK activity)), 1.2; in the assay with E. cloacae (planktonic, cutoff for positive 3-fold increase, read-out: AK-based Prestwick Library Screening Results, E. cloacae (fold increase in extracellular AK activity)), 1.5; with P. aeruginosa (planktonic, cutoff for positive 3-fold increase, read-out: AK-based Prestwick Library Screening Results, P. aeruginosa (fold increase in extracellular AK activity)), 1.2; in the assay on E. faecium (planktonic, cutoff for positive 3-fold increase, read-out: AK-based Prestwick Library Screening Results, E. faecium (fold increase in extracellular AK activity)), 1. Besides, the fold induction at 50 µM in assay [2] (planktonic, cutoff for positive 3-fold increase, read-out: AK-based Prestwick Library Screening Results, S. aureus (fold increase in extracellular AK activity)) worked out at 0.9.
As to `NC[C@H]1O[C@H](O[C@H]2[C@H](O[C@@H]3O[C@H](CO)[C@@H](O)[C@H]3O)[C@@H](O)[C@H](N)C[C@@H]2N)[C@H](N)[C@@H](O)[C@@H]1O` [Ribostamycin sulfate salt], the fold induction at 50 µM with K. pneumoniae (planktonic, cutoff for positive-scoring molecules 3-fold increase, read-out: AK-based Prestwick Library Screening Results, K. pneumoniae (fold increase in extracellular AK activity)) was determined as 0.7; in the assay with E. coli (planktonic, cutoff for positive-scoring molecules 3-fold increase, read-out: AK-based Prestwick Library Screening Results, E. coli (fold increase in extracellular AK activity)), 0.9; in assay [1] (planktonic, cutoff for positive-scoring molecules 3-fold increase, read-out: AK-based Prestwick Library Screening Results, A. baumannii (fold increase in extracellular AK activity)), 0.8; with E. cloacae (planktonic, cutoff for positive-scoring molecules 3-fold increase, read-out: AK-based Prestwick Library Screening Results, E. cloacae (fold increase in extracellular AK activity)) it was 1.2; in the assay with P. aeruginosa (planktonic, cutoff for positive-scoring molecules 3-fold increase, read-out: AK-based Prestwick Library Screening Results, P. aeruginosa (fold increase in extracellular AK activity)), 0.8; in the assay on E. faecium (planktonic, cutoff for positive-scoring molecules 3-fold increase, read-out: AK-based Prestwick Library Screening Results, E. faecium (fold increase in extracellular AK activity)) it was 0.9. Besides, the fold induction at 50 µM in assay [2] (planktonic, cutoff for positive-scoring molecules 3-fold increase, read-out: AK-based Prestwick Library Screening Results, S. aureus (fold increase in extracellular AK activity)) was 0.8.
